Experimental findings from ChEMBL document CHEMBL3588755, “hERG Channel Inhibitory Daphnane Diterpenoid Orthoesters and Polycephalones A and B with Unprecedented Skeletons from Gnidia polycephala” (J Nat Prod, 2015) are described below.

One series has as its target hERG (KCNH2) (Homo sapiens, UniProt Q12809). As to the kind of experiment: Inhibition of human ERG expressed in Xenopus laevis oocytes at 100 uM incubated for 3 mins at holding potential of -100 mV followed by depolarization to +20 mV and repolarization to -50 mV by two-microelectrode voltage clamp assay. In kind it is cell-based. The settings on record: Xenopus laevis oocytes expressing human ERG.

Series [1] in a line: Retention time of the compound by HPLC method. In kind it is physicochemical.

hERG (KCNH2), sequence (Q12809 whole entry): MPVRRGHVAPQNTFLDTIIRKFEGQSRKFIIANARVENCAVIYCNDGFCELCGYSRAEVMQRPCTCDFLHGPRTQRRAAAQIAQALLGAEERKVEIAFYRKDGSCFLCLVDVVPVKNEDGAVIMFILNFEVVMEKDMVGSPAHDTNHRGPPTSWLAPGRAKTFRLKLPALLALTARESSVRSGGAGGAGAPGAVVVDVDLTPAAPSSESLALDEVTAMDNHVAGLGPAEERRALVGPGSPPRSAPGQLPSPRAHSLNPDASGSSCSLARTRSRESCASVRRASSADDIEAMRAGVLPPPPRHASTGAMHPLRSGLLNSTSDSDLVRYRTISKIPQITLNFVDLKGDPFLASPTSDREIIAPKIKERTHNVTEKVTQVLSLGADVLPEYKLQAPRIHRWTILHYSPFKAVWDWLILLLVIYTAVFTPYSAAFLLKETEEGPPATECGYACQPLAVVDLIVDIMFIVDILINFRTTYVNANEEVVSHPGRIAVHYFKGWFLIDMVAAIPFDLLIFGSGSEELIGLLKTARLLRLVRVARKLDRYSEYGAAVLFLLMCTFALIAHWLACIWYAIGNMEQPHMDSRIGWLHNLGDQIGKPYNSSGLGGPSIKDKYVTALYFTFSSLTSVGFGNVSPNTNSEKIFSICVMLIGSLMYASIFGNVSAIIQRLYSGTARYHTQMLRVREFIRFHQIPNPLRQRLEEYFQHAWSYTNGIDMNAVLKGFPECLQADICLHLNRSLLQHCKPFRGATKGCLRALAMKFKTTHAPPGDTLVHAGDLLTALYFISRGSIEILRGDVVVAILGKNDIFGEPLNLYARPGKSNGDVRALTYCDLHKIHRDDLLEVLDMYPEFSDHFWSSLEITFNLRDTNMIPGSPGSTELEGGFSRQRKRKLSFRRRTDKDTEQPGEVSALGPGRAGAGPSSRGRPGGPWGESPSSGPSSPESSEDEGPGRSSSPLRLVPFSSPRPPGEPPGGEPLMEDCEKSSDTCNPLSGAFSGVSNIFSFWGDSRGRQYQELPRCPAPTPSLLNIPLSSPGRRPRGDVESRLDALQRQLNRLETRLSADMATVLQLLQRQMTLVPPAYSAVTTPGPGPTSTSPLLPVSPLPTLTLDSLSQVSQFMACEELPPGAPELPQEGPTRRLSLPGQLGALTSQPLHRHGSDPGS

`C=C(C)[C@]12OC3(/C=C\C=C/CCCCC)O[C@@H]1[C@@H]1[C@@H]4O[C@]4(CO)[C@@H](O)[C@]4(O)C(=O)C(C)=C[C@H]4[C@@]1(O3)[C@H](C)[C@H]2OC(=O)c1ccccc1` gave an inhibition at 0.05 h, 100 µM against hERG (KCNH2) of 42.5%. This compound also yielded a Retention_time in series [1] of 23.5 min.
`C=C(C)[C@]12OC3(/C=C/C=C/CCCCC)O[C@@H]1[C@@H]1[C@@H]4O[C@]4(CO)[C@@H](O)[C@]4(O)C(=O)C(C)=C[C@H]4[C@@]1(O3)[C@H](C)[C@H]2OC(=O)c1ccccc1` had an inhibition at 0.05 h, 100 µM at hERG (KCNH2) of 51.3%. In series [1], this compound showed a Retention_time of 25.5 min.
The compound `C=C(C)[C@@]12C[C@@H](C)[C@@]34OC(/C=C\C=C/CCCCC)(O[C@@H]1[C@@H]3[C@@H]1O[C@]1(CO)[C@@H](O)[C@]1(O)C(=O)C(C)=C[C@H]14)O2` came in with an inhibition at 0.05 h, 100 µM against hERG (KCNH2) of 55.4%. This compound also yielded a Retention_time in series [1] of 18.9 min.

Usually inhibition stands for the change of the read-out against control, counted positive when it falls. A higher inhibition goes with a strong effect.
